Experiments:
[1] = target: T1, HCV NS5b polymerase (Hepatitis C virus genotype 1b, UniProt P26663); assay: HCV NS5b Polymerase Ki Determination Assay; type: biochemical
T1 construct: 100 nM HCV NS5bΔ55 (genotype 1b) in a 50 μl reaction mixture
Experimental: A modified method of the NS5b Polymerase inhibition assay was used to determine the Ki and the mode of action for NS5b inhibitor compounds. The enzyme and template were fixed at 100 nM and 20 µg/mL and all other reaction conditions were identical to the NS5b polymerase inhibition assay. The velocity of NS5b reactions were monitored at different ATP and inhibitor concentrations. The ATP concentration ranged from 0.1 μM to 1000 μM, and the concentration of the inhibitor ranged from 0.003 fold to 7 fold of the IC50 value. Velocities obtained at each ATP and inhibitor concentration were analysed using Graph Pad Prism to identify the mode of inhibition and Ki for inhibitor compounds. Under these conditions, the Ki for Compound 25 is 0.08 μM.

[2] = In vitro anabolism of Compound 9, intracellular triphosphate in replicon cells; type: in vitro ADME, human; settings: human, Huh-7 cells carrying an HCV subgenomic replicon, Huh-7 replicon cells
Experimental: (§1) In vitro anabolism of Compound 9 and the intracellular accumulation of its triphosphate (Compound 25) were studied in adherent Huh-7 and plated primary human hepatocytes. The Huh-7 human hepatoma liver cells (JCRB0403 http://cellbank.nibio.go.jp/) are maintained in DMEM containing 10% fetal bovine serum (FBS). Huh-7 cell clones carrying a HCV subgenomic replicon (Lohmann et al., 1999. Science 285: 110-113) are maintained in DMEM supplemented with 10% FBS and 0.25 mg/ml G418. The cell lines are grown at 37° C. in a 5% CO2-95% air atmosphere. Plated primary human hepatocytes (6-well Collagen/No Overlay) were purchased from Cellz Direct (NC, USA) and maintained in InVitroGro Medium (Celsis, In Vitro Technologies, MD USA) under the same incubation conditions.
(§2) For intracellular anabolism studies, Huh-7 cells are trypsinized, harvested, re-suspended in DMEM supplemented with 10% FBS, counted and seeded at a density of 0.7×10^6 cells per well in a six-well plate and incubated for a period of 24 hr at 37° C. in 5% CO^2 atmosphere. Media is removed and replaced with fresh DMEM+10% FBS containing 10 μM Compound 9 for a period of 24 hr at 37° C. The cell monolayer is then quickly washed three times with drug-free medium to remove extracellular Compound 9 and each well is incubated with fresh DMEM+10% FBS for a specified time period (i.e. 6-wells at 0, 2, 4, 8, 24 and 48 hr). At the end of the incubation period, the medium is aspirated from the well and the cell monolayer is washed with cold phosphate buffered saline, pH 7.4. The washed cell monolayer is treated with 1.0 ml ice-cold 70% methanol:water, scraped and harvested into a centrifuge tube and then sonicated for 1 min at 4° C. […]
(§3) Sample Analysis for intracellular nucleoside metabolites: The cell lysate samples are thawed on ice, and subjected to two freeze/thaw cycles in a dry ice/acetone bath. […] The respective metabolites are identified and quantified by comparing their chromatographic profiles and peak area response with those of authentic standards.

[3] = test system: Huh-7-HCV subgenomic replicon cells; assay: as above; type: in vitro ADME, human; settings: Huh-7 replicon cells; 24 hours incubation with Compound 9 at 10 μM
Experimental: as §1, §2, §3

[4] = test system: primary human hepatocytes; assay: In vitro anabolism of Compound 9, intracellular triphosphate in primary human hepatocytes; type: in vitro ADME
Experimental: as §1
(§4) For intracellular anabolism studies, Huh-7 cells are trypsinized, harvested, re-suspended in DMEM supplemented with 10% FBS, counted and seeded at a density of 0.7×10^6 cells per well in a six-well plate and incubated for a period of 24 hr at 37° C. in 5% CO^2 atmosphere. Media is removed and replaced with fresh DMEM+10% FBS containing 10 μM Compound 9 for a period of 24 hr at 37° C. The cell monolayer is then quickly washed three times with drug-free medium to remove extracellular Compound 9 and each well is incubated with fresh DMEM+10% FBS for a specified time period (i.e. 6-wells at 0, 2, 4, 8, 24 and 48 hr). At the end of the incubation period, the medium is aspirated from the well and the cell monolayer is washed with cold phosphate buffered saline, pH 7.4. The washed cell monolayer is treated with 1.0 ml ice-cold 70% methanol:water, scraped and harvested into a centrifuge tube and then sonicated for 1 min at 4° C. The resulting cell lysate is stored overnight at −80° C. and subsequently used to extract the metabolites of Compound 9. Isolation of Compound 9 and the intracellular metabolites of Compound 9 from plated primary human hepatocytes uses similar experimental conditions, except that InVitroGro Medium is used as the cell culture medium.
(§5) Sample Analysis for intracellular nucleoside metabolites: The cell lysate samples are thawed on ice, and subjected to two freeze/thaw cycles in a dry ice/acetone bath. Cells extracts are vortexed and centrifuged at 16000 g for 5 min at 4° C. and 40 μL of supernatant is injected for analysis using a API4000 triple quadrupole system. The Shimadzu LC autosampler is set at 4° C. to minimize evaporation. Compound 9 mono-, di- and triphosphate (Compound 25) are separated using a pH gradient on a Biobasic AX, 3.0×50 mm column maintained at 40° C. […] The respective metabolites are identified and quantified by comparing their chromatographic profiles and peak area response with those of authentic standards.

[5] = as above; type: in vitro ADME; settings: human, plated primary human hepatocytes, Human Hepatocytes
Experimental: as §1, §4, §5

[6] = target: T2, HCV NS5bΔ55 (genotype 1b) (Hepatitis C virus genotype 1b, UniProt P26663); assay: HCV Polymerase Inhibition Assay; type: biochemical
T2 construct: 100 nM HCV NS5bΔ55 (genotype 1b) in a 50 μl reaction mixture
Experimental: Poly r(U) RNA template (Sigma) is employed for the HCV NS5b polymerase inhibition assay using a NS5bΔ55 (genotype 1b) purified enzyme. The kinetic constant, Km, is determined for the Poly r(U) template and ATP using a non-linear, least squares fit of initial rates as a function of substrate concentration assuming Michaelis-Menten kinetics.
Standard RdRp assays consist of 20 μg/mL Poly r(U) RNA template and 100 nM HCV NS5bΔ55 (genotype 1b) in a 50 μl reaction mixture containing 20 mM Tris-HCl, 5 mM MgCl2, 5 mM MnCl2, 3 mM DTT, 72 μM ATP, and 0.019 μM [α-^33P]ATP. Elongation reactions are initiated by the addition of ATP, and proceed for 60 min at 25° C. Reactions are quenched by the addition of 0.2 M EDTA, and product formation is collected by filtration through Multiscreen plates (Millipore). Quantification of product formation was performed using TopCount (Perkin Elmer). The inhibitor concentration at which the enzyme catalysed rate is reduced by half (IC50) is determined using a computer program for curve fitting.

[7] = read-out: Triphosphate decay half-life, Elimination phase (β, h)
[8] = read-out: Triphosphate decay half-life, Initial phase (α, h) (converted)

T2 sequence (P26663 2420-2955, stated change not applied): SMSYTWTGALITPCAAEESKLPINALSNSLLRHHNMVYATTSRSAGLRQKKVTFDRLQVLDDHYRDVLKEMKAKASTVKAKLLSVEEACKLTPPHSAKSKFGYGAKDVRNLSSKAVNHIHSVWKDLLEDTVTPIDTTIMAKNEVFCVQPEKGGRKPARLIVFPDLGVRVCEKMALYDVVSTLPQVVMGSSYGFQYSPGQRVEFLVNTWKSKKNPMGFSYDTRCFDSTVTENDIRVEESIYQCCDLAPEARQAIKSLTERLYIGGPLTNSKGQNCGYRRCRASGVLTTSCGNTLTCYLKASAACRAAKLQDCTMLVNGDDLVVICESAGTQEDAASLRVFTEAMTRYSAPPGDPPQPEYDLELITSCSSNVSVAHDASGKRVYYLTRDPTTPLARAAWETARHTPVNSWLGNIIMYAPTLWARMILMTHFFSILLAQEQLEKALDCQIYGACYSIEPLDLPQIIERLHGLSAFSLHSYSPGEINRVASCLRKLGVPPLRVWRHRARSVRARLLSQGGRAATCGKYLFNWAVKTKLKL
T1 sequence (P26663 2420-2955): as the sequence (P26663 2420-2955, stated change not applied) above

For C[C@@]1(O)[C@H](O)[C@@H](COP(=O)(O)OP(=O)(O)OP(=O)(O)O)O[C@H]1c1ccc2c(N)ncnn12 [Compound 25, 4-amino-7-(2-C-methyl-β-D-ribofuranosyl)-pyrrolo[2,1-f][1,2,4]triazine 5′-triphosphate], the Ki [1] was 80 nM, the half-life at 10 μM [2, 7] was ≥ 38 h and the half-life at 10 μM [2, 8] was 0.59 h. For the same compound, the “Intracellular Triphosphate Concentration (pmol/million cells, 24 hr incubation)” value [3] was 5.7 pmol/million cells, the “Intracellular Triphosphate Concentration (pmol/million cells, 24 hr incubation)” value ([4]; Human Hepatocytes, 24 hours incubation with Compound 9 at 10 μM) was 339 pmol/million cells and the “intracellular triphosphate level in primary human hepatocytes relative to replicon cells” value ([4]; same experimental conditions, 10 μM Compound 9, 24 hours) was ~60 fold. The half-life at 10 μM [5, 7] was ≥ 38 h, the half-life at 10 μM [5, 8] was 3.4 h and the IC50 [6] was 370 nM.

From patent US8415309B2, “Bicyclic nucleosides and nucleotides as therapeutic agents” (priority 2009, dated 2013)
